# According to patent US20070128217A1 (priority 2003, published 2007):
# Columns and labels:
# [1] = test system: control sera (pooled serum of ten healthy LUMC hospital workers; commercial negative donor pooled serum from the Dutch bloodbank); type: binding, human; parameters: Binding of Control serum LUMC to linear peptides / Binding of Control serum Blood-bank to linear peptides / Binding of Control serum LUMC to looped peptides / Binding of Control Serum Blood-Bank to Looped peptides / Binding of Control serum LUMC to linear peptides of the protein M of SARS-CoV Urbani / Binding of Control serum Blood-bank to linear peptides of the protein M of SARS-CoV Urbani / Binding of Control serum LUMC to looped peptides of the protein M of SARS-CoV Urbani / Binding of Control Serum Blood-Bank to Looped peptides of the protein M of SARS-CoV Urbani: unit not given here
# [2] = test system: rabbit serum obtained by immunizing a rabbit with the SARS-CoV strain Frankfurt 1; type: binding; parameters: Binding of a rabbit serum to linear peptides / Binding of a rabbit serum to looped peptides / Rabbit serum linear peptides / Rabbit serum looped peptides / Binding of a rabbit serum to linear peptides of protein N of SARS-CoV Urbani (Rabbit serum linear peptides) / Binding of a rabbit serum to looped/cyclic peptides of protein N of SARS-CoV Urbani (Rabbit serum looped peptides): unit not given here
# [3] = test system: antibodies in sera from SARS patients (sera 1a, 1b, 2, 6, 37, 62, London, SARS-yellow, SARS-green); type: binding, human; parameters: Binding of serum 6 to linear peptides of protein X1 of SARS-CoV Urbani / Binding of serum 37 to linear peptides of protein X1 of SARS-CoV Urbani / Binding of serum 6 to looped/cyclic peptide (PEPSCAN-ELISA) / Binding of serum 37 to looped/cyclic peptide (PEPSCAN-ELISA) / Binding of serum 37 to looped/cyclic peptides of protein X1 of SARS-CoV Urbani / Binding of serum 6 to linear peptides of protein X2 / Binding of serum 37 to linear peptides of protein X2 / Binding of serum 37 to looped/cyclic peptides of protein X2 of SARS-CoV Urbani / Binding of serum 6 to linear peptides of protein M of SARS-CoV Urbani / Binding of serum 37 to linear peptides of protein M of SARS-CoV Urbani / Binding of serum 6 to looped/cyclic peptides of protein M of SARS-CoV Urbani / Binding of serum 37 to looped/cyclic peptides of protein M of SARS-CoV Urbani / Binding of serum 6 to linear peptides of protein X3 of SARS-CoV Urbani / Binding of serum 37 to linear peptides of protein X3 of SARS-CoV Urbani / Binding of serum 37 to looped/cyclic peptides of protein X3 of SARS-CoV Urbani / Binding of serum 6 to linear peptides of protein X4 of SARS-CoV Urbani / Binding of serum 37 to linear peptides of protein X4 of SARS-CoV Urbani / Binding of serum 37 to looped/cyclic peptides of protein X4 of SARS-CoV Urbani / Binding of serum 6 to linear peptides of protein X5 of SARS-CoV Urbani / Binding of serum 37 to linear peptides of protein X5 of SARS-CoV Urbani / Binding of serum 37 to looped/cyclic peptides of protein X5 of SARS-CoV Urbani / Binding of serum 6 to linear peptides of protein N of SARS-CoV Urbani / Binding of serum 37 to linear peptides of protein N of SARS-CoV Urbani / Binding of serum 6 to linear peptide (PEPSCAN-ELISA) / Binding of serum 1a to looped/cyclic peptides of protein N of SARS-CoV Urbani / Binding of serum 1b to looped/cyclic peptides of protein N of SARS-CoV Urbani / Binding of serum 2 to looped/cyclic peptides of protein N of SARS-CoV Urbani / Binding of serum 6 to looped/cyclic peptides of protein N of SARS-CoV Urbani / Binding of serum 37 to looped/cyclic peptides of protein N of SARS-CoV Urbani / Binding of serum 62 to looped/cyclic peptides of protein N of SARS-CoV Urbani / Binding of serum London to looped/cyclic peptides of protein N of SARS-CoV Urbani / Binding of serum SARS-green to looped/cyclic peptides of protein N of SARS-CoV Urbani: unit not given here
sequence,measurement,setting,value
ADNKFALTCTSTHFA,Binding of Control Serum Blood-Bank to Looped peptides,[1],0.7
same,Binding of Control serum Blood-bank to linear peptides,[1],0.8
same,Binding of Control serum LUMC to linear peptides,[1],0.9
same,Binding of Control serum LUMC to looped peptides,[1],0.9
same,Rabbit serum linear peptides,[2],0.7
same,Rabbit serum looped peptides,[2],0.2
AEILIIIMRTFRIAI,Binding of Control Serum Blood-Bank to Looped peptides of the protein X3 of SARS-CoV Urbani,[1],0.7
same,Binding of Control serum Blood-bank to linear peptides of the protein X3 of SARS-CoV Urbani,[1],0.7
same,Binding of Control serum LUMC to linear peptides of the protein X3 of SARS-CoV Urbani,[1],0.4
same,Binding of Control serum LUMC to looped peptides of the protein X3 of SARS-CoV Urbani,[1],0.8
same,Rabbit serum linear peptides,[2],0.3
same,Rabbit serum looped peptides,[2],0.0
AGHPLGRCDIKDLPK,Binding of Control Serum Blood-Bank to Looped peptides of the protein M of SARS-CoV Urbani,[1],0.9
same,Binding of Control serum Blood-bank to linear peptides of the protein M of SARS-CoV Urbani,[1],1.1
same,Binding of Control serum LUMC to linear peptides of the protein M of SARS-CoV Urbani,[1],0.8
same,Binding of Control serum LUMC to looped peptides of the protein M of SARS-CoV Urbani,[1],0.7
same,Rabbit serum linear peptides,[2],0.1
same,Rabbit serum looped peptides,[2],0.1
ANYFVCWHTHNYDYC,Binding of Control Serum Blood-Bank to Looped peptides,[1],0.5
same,Binding of Control serum Blood-bank to linear peptides,[1],0.7
same,Binding of Control serum LUMC to linear peptides,[1],0.7
same,Binding of Control serum LUMC to looped peptides,[1],0.6
same,Binding of a rabbit serum to linear peptides,[2],0.1
same,Binding of a rabbit serum to looped peptides,[2],0.5
AQPVKIDNASPASTV,Binding of Control Serum Blood-Bank to Looped peptides,[1],1.0
same,Binding of Control serum Blood-bank to linear peptides,[1],0.7
same,Binding of Control serum LUMC to linear peptides,[1],0.6
same,Binding of Control serum LUMC to looped peptides,[1],1.0
same,Binding of a rabbit serum to linear peptides,[2],0.1
same,Binding of a rabbit serum to looped peptides,[2],0.5
ATFFIFNKLVKDPPN,Binding of Control Serum Blood-Bank to Looped peptides,[1],0.8
same,Binding of Control serum Blood-bank to linear peptides,[1],0.5
same,Binding of Control serum LUMC to linear peptides,[1],0.5
same,Binding of Control serum LUMC to looped peptides,[1],0.8
same,Binding of a rabbit serum to linear peptides,[2],0.1
same,Binding of a rabbit serum to looped peptides,[2],0.6
CAYCCNIVNVSLVKP,Binding of Control Serum Blood-Bank to Looped peptides,[1],0.9
same,Binding of Control serum Blood-bank to linear peptides,[1],1.1
same,Binding of Control serum LUMC to linear peptides,[1],0.7
same,Binding of Control serum LUMC to looped peptides,[1],0.7
same,Binding of a rabbit serum to linear peptides,[2],0.6
same,Binding of a rabbit serum to looped peptides,[2],0.2
CCNIVNVSLVKPTVY,Binding of Control Serum Blood-Bank to Looped peptides,[1],0.4
same,Binding of Control serum Blood-bank to linear peptides,[1],0.7
same,Binding of Control serum LUMC to linear peptides,[1],0.5
same,Binding of Control serum LUMC to looped peptides,[1],0.5
same,Binding of a rabbit serum to linear peptides,[2],0.6
same,Binding of a rabbit serum to looped peptides,[2],0.0
CNIVNVSLVKPTVYV,Binding of Control Serum Blood-Bank to Looped peptides,[1],0.6
same,Binding of Control serum Blood-bank to linear peptides,[1],0.7
same,Binding of Control serum LUMC to linear peptides,[1],0.8
same,Binding of Control serum LUMC to looped peptides,[1],0.8
same,Binding of a rabbit serum to linear peptides,[2],0.1
same,Binding of a rabbit serum to looped peptides,[2],0.5
CQDPAGGALIARCWY,Binding of Control Serum Blood-Bank to Looped peptides,[1],0.9
same,Binding of Control serum Blood-bank to linear peptides,[1],0.7
same,Binding of Control serum LUMC to linear peptides,[1],0.3
same,Binding of Control serum LUMC to looped peptides,[1],0.7
same,Rabbit serum linear peptides,[2],0.5
same,Rabbit serum looped peptides,[2],0.6
IALNKRWQLALYKGF,Recognition of the peptide by the rabbit serum,[2],recognized
same,Binding of serum 1a to linear peptides of protein X1 of SARS-CoV Urbani,[3],0.8
same,Binding of serum 1a to looped/cyclic peptide (PEPSCAN-ELISA),[3],0.5
same,Binding of serum 1b to linear peptides of protein X1 of SARS-CoV Urbani,[3],0.7
same,Binding of serum 1b to looped/cyclic peptide (PEPSCAN-ELISA),[3],0.4
same,Binding of serum 2 to linear peptides of protein X1 of SARS-CoV Urbani,[3],0.6
same,Binding of serum 2 to looped/cyclic peptide (PEPSCAN-ELISA),[3],0.5
same,Binding of serum 6 to linear peptides of protein X1 of SARS-CoV Urbani,[3],0.9
same,Binding of serum 6 to looped/cyclic peptide (PEPSCAN-ELISA),[3],0.4
same,Binding of serum 37 to linear peptides of protein X1 of SARS-CoV Urbani,[3],0.7
same,Binding of serum 37 to looped/cyclic peptide (PEPSCAN-ELISA),[3],0.5
same,Binding of serum 62 to linear peptides of protein X1 of SARS-CoV Urbani,[3],0.7
same,Binding of serum 62 to looped/cyclic peptide (PEPSCAN-ELISA),[3],0.7
same,Binding of serum London to linear peptides of protein X1 of SARS-CoV Urbani,[3],0.3
same,Binding of serum London to looped/cyclic peptide (PEPSCAN-ELISA),[3],0.3
same,Binding of serum SARS-green to linear peptides of protein X1 of SARS-CoV Urbani,[3],0.4
same,Binding of serum SARS-green to looped/cyclic peptide (PEPSCAN-ELISA),[3],0.4
same,Binding of serum SARS-yellow to linear peptides of protein X1 of SARS-CoV Urbani,[3],0.5
same,Binding of serum SARS-yellow to looped/cyclic peptide (PEPSCAN-ELISA),[3],0.6
KIIALNKRWQLALYK,Recognition of the peptide by the rabbit serum,[2],recognized
same,Binding of serum 1a to linear peptides of protein X1 of SARS-CoV Urbani,[3],0.8
same,Binding of serum 1a to looped/cyclic peptide (PEPSCAN-ELISA),[3],0.7
same,Binding of serum 1b to linear peptides of protein X1 of SARS-CoV Urbani,[3],0.7
same,Binding of serum 1b to looped/cyclic peptide (PEPSCAN-ELISA),[3],0.5
same,Binding of serum 2 to linear peptides of protein X1 of SARS-CoV Urbani,[3],0.7
same,Binding of serum 2 to looped/cyclic peptide (PEPSCAN-ELISA),[3],0.7
same,Binding of serum 6 to linear peptides of protein X1 of SARS-CoV Urbani,[3],1.0
same,Binding of serum 6 to looped/cyclic peptide (PEPSCAN-ELISA),[3],0.8
same,Binding of serum 37 to linear peptides of protein X1 of SARS-CoV Urbani,[3],0.8
same,Binding of serum 37 to looped/cyclic peptide (PEPSCAN-ELISA),[3],0.8
same,Binding of serum 62 to linear peptides of protein X1 of SARS-CoV Urbani,[3],0.8
same,Binding of serum 62 to looped/cyclic peptide (PEPSCAN-ELISA),[3],0.7
same,Binding of serum London to linear peptides of protein X1 of SARS-CoV Urbani,[3],0.4
same,Binding of serum London to looped/cyclic peptide (PEPSCAN-ELISA),[3],0.3
same,Binding of serum SARS-green to linear peptides of protein X1 of SARS-CoV Urbani,[3],0.4
same,Binding of serum SARS-green to looped/cyclic peptide (PEPSCAN-ELISA),[3],0.3
same,Binding of serum SARS-yellow to linear peptides of protein X1 of SARS-CoV Urbani,[3],0.5
same,Binding of serum SARS-yellow to looped/cyclic peptide (PEPSCAN-ELISA),[3],0.5
RCWLCWKCKSKNPLL,Binding of a rabbit serum to linear peptides,[2],0.1
same,Binding of a rabbit serum to looped peptides,[2],0.7
same,Binding of serum 1a to looped/cyclic peptide (PEPSCAN-ELISA),[3],0.7
same,Binding of serum 1b to looped/cyclic peptide (PEPSCAN-ELISA),[3],0.5
same,Binding of serum 2 to looped/cyclic peptide (PEPSCAN-ELISA),[3],0.7
same,Binding of serum 6 to looped/cyclic peptide (PEPSCAN-ELISA),[3],0.8
same,Binding of serum 37 to looped/cyclic peptide (PEPSCAN-ELISA),[3],0.8
same,Binding of serum 62 to looped/cyclic peptide (PEPSCAN-ELISA),[3],0.7
same,Binding of serum London to looped/cyclic peptide (PEPSCAN-ELISA),[3],0.4
same,Binding of serum SARS-green to looped/cyclic peptide (PEPSCAN-ELISA),[3],0.4
same,Binding of serum SARS-yellow to looped/cyclic peptide (PEPSCAN-ELISA),[3],0.7
same,"Recognition of the peptide by sera of SARS-CoV infected individuals, and form (linear, looped/cyclic) in which it is recognized",[3],recognized in linear form
